The supplement of paper PMC10307832

Assays:
Experiment in all cases: relative viability (nuclei count vs DMSO), 5 days (fraction); higher = more cells survive
Decitabine + Tozasertib = compound: Nc1ncn([C@H]2C[C@H](O)[C@@H](CO)O2)c(=O)n1 [Decitabine] + Cc1cc(Nc2cc(N3CCN(C)CC3)nc(Sc3ccc(NC(=O)C4CC4)cc3)n2)n[nH]1 [Tozasertib] (partner 0.1 µM)
Outline: (§1)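 Lung cancer cell lines were pin-tool dosed in 1536-well plates on the day after seeding, with either a lone drug or a fixed anchor-drug dose plus five library-drug doses (not always all listed) in √10 steps. Nuclei were counted on 4× images after 5 days. Relative viability is the ratio of treated-well to vehicle-well nuclei counts, with each value a median of duplicate plates.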

[1] = compound: O=C(C[C@H]1NCCC[C@@H]1O)Cn1cnc2cc(Br)c(Cl)cc2c1=O (racemic) [Halofuginone] + CS(=O)(=O)N1CCN(Cc2cc3nc(-c4cccc5[nH]ncc45)nc(N4CCOCC4)c3s2)CC1 [Pictilisib] (partner 1 µM)
Outline: as §1

[2] = compound: O=C(C[C@H]1NCCC[C@@H]1O)Cn1cnc2cc(Br)c(Cl)cc2c1=O (racemic) [Halofuginone] + Nc1ncn([C@H]2C[C@H](O)[C@@H](CO)O2)c(=O)n1 [Decitabine] (partner 2 µM)
Outline: as §1

[3] = compound: O=C(C[C@H]1NCCC[C@@H]1O)Cn1cnc2cc(Br)c(Cl)cc2c1=O (racemic) [Halofuginone] + O=C(CCCCCCC(=O)Nc1ccccc1)NO [Vorinostat] (partner 1 µM)
Outline: as §1

| Cell Line | relative viability (Decitabine + Tozasertib; first compound 0.04 µM) | relative viability (Decitabine + Tozasertib; first compound 0.1265 µM) | relative viability (Decitabine + Tozasertib; first compound 0.4 µM) | relative viability (Decitabine + Tozasertib; first compound 1.265 µM) | relative viability (Decitabine + Tozasertib; first compound 4 µM) | relative viability ([1]; first compound 0.001 µM) | relative viability ([1]; first compound 0.003162 µM) | relative viability ([1]; first compound 0.01 µM) | relative viability ([1]; first compound 0.03162 µM) | relative viability ([1]; first compound 0.1 µM) | relative viability ([2]; first compound 0.001 µM) | relative viability ([2]; first compound 0.003162 µM) | relative viability ([2]; first compound 0.01 µM) | relative viability ([2]; first compound 0.03162 µM) | relative viability ([2]; first compound 0.1 µM) | relative viability ([3]; first compound 0.001 µM) | relative viability ([3]; first compound 0.003162 µM) | relative viability ([3]; first compound 0.01 µM) | relative viability ([3]; first compound 0.03162 µM) | relative viability ([3]; first compound 0.1 µM) |
| --- | --- | --- | --- | --- | --- | --- | --- | --- | --- | --- | --- | --- | --- | --- | --- | --- | --- | --- | --- | --- |
| NCI-H23 | 0.256 | 0.199 | 0.152 | 0.195 | 0.172 | 0.507 | 0.518 | 0.47 | 0.415 | 0.296 | 0.333 | 0.314 | 0.313 | 0.346 | 0.273 | 0.664 | 0.521 | 0.559 | 0.553 | 0.534 |
| NCI-H322M | 0.415 | 0.484 | 0.426 | 0.35 | 0.376 | 0.484 | 0.514 | 0.489 | 0.486 | 0.502 | 0.71 | 0.657 | 0.681 | 0.657 | 0.53 | 0.935 | 0.967 | 0.811 | 0.865 | 0.561 |
| NCI-H358 | 0.121 | 0.0951 | 0.0825 | 0.1 | 0.0948 | 0.364 | 0.351 | 0.359 | 0.245 | 0.196 | 0.227 | 0.239 | 0.2 | 0.135 | 0.119 | 0.79 | 0.702 | 0.634 | 0.233 | 0.109 |
| NCI-H441 | 0.296 | 0.269 | 0.208 | 0.234 | 0.317 | 0.482 | 0.466 | 0.489 | 0.415 | 0.385 | 0.29 | 0.262 | 0.262 | 0.275 | 0.234 | 0.799 | 0.936 | 0.863 | 0.8 | 0.49 |
| NCI-H460 | 0.325 | 0.24 | 0.27 | 0.0551 | 0.0621 | 0.393 | 0.345 | 0.336 | 0.345 | 0.299 | 0.47 | 0.509 | 0.518 | 0.501 | 0.0841 | 0.675 | 0.756 | 0.744 | 0.495 | 0.176 |
| NCI-H520 | 0.402 | 0.444 | 0.386 | 0.352 | 0.308 | 0.301 | 0.295 | 0.281 | 0.243 | 0.181 | 0.529 | 0.498 | 0.579 | 0.607 | 0.347 | 0.644 | 0.711 | 0.551 | 0.612 | 0.309 |
| NCI-H596 | 0.733 | 0.87 |  | 0.526 | 0.466 | 0.423 | 0.431 | 0.388 | 0.423 | 0.3 | 1.01 | 0.961 | 1.09 | 1.01 | 0.775 | 0.628 | 0.502 | 0.58 | 0.648 | 0.562 |
| NCI-H647 | 0.262 | 0.192 | 0.172 | 0.0834 | 0.105 | 0.543 | 0.425 | 0.459 | 0.418 | 0.33 | 0.408 | 0.452 | 0.432 | 0.334 | 0.215 | 0.833 | 0.499 | 0.489 | 0.453 | 0.103 |
| NCI-H650 | 0.562 | 0.468 | 0.372 | 0.264 | 0.245 | 0.956 | 0.953 | 1.02 | 0.801 | 0.566 | 0.362 | 0.314 | 0.285 | 0.323 | 0.28 | 0.792 | 0.537 | 0.5 | 0.376 | 0.355 |
| NCI-H661 | 0.345 | 0.33 | 0.341 | 0.318 | 0.348 | 0.496 | 0.355 | 0.365 | 0.408 | 0.444 | 0.595 | 0.618 | 0.564 | 0.555 | 0.479 | 0.773 | 0.803 | 0.682 | 0.549 | 0.491 |
| NCI-H727 | 0.587 | 0.445 | 0.518 | 0.754 | 0.747 | 0.428 | 0.444 | 0.359 | 0.421 | 0.194 | 0.85 | 0.764 | 0.954 | 0.944 | 0.723 | 1.23 | 1.05 | 1.06 | 1.35 | 1.21 |
| NCI-H838 | 0.196 | 0.236 | 0.188 | 0.191 | 0.176 | 0.478 | 0.481 | 0.42 | 0.37 | 0.134 | 0.502 | 0.465 | 0.445 | 0.458 | 0.281 | 0.752 | 0.746 | 0.703 | 0.507 | 0.16 |
| NCI-H1355 | 0.315 | 0.334 | 0.263 | 0.224 | 0.224 | 0.444 | 0.424 | 0.458 | 0.501 | 0.376 | 0.401 | 0.332 | 0.359 | 0.351 | 0.385 | 0.688 | 0.648 | 0.596 | 0.663 | 0.561 |
| NCI-H1395 | 0.549 | 0.517 | 0.487 | 0.445 | 0.453 | 0.625 | 0.674 | 0.86 | 0.578 | 0.54 | 0.662 | 0.69 | 0.751 | 0.631 | 0.519 | 0.741 | 0.682 | 0.656 | 0.603 | 0.49 |
| NCI-H1437 | 0.358 | 0.363 | 0.281 | 0.201 | 0.17 | 0.429 | 0.536 | 0.414 | 0.402 | 0.24 | 0.621 | 0.555 | 0.513 | 0.522 | 0.522 | 0.965 | 0.886 | 0.772 | 0.747 | 0.501 |
| NCI-H1650 | 0.247 | 0.297 | 0.289 | 0.169 | 0.193 | 0.28 | 0.658 | 0.469 | 0.495 | 0.136 | 0.468 | 0.5 | 0.439 | 0.491 | 0.369 | 0.688 | 0.595 | 0.522 | 0.566 | 0.366 |
